From patent publication US12186304B2, “Method for treating cancer by combination of IAP inhibitor and modulator of immune checkpoint molecule” (ASCENTAGE PHARMA (SUZHOU) CO., LTD., priority 2018, dated 2025)

Experiment: Phase I study (NCT03386526): safety and tolerability
Protocol: The Phase I dose escalation study included two parts.
Pembrolizumab was administered 200 mg IV on day 1 of a 21-day-cycle, until disease progression or untolerated toxicity.
The inclusion criteria for the Phase I study are: Age≥18 years; ECOG PS: 0-1;
Adequate hematologic, renal and liver functions; Advanced or metastatic solid tumor patients must be refractory to or intolerant of existing therapy(ies) known to provide clinical benefit for their condition.

CN[C@@H](C)C(=O)N[C@H]1CN(S(=O)(=O)c2cccc(S(=O)(=O)N3CC[C@H]4CC[C@@H](C(=O)NC(c5ccccc5)c5ccccc5)N4C(=O)[C@@H](NC(=O)[C@H](C)NC)C3)c2)CC[C@H]2CC[C@@H](C(=O)NC(c3ccccc3)c3ccccc3)N2C1=O [APG-1387]
2: # of pts discontinued treatment: Adverse Event (APG-1387 60 mg) | # of pts discontinued treatment: Clinical progression (Overall) | # of pts discontinued treatment: Lack of efficacy (Overall) | TRAEs (all Grades): Bell's palsy, patients (Overall) | TRAEs (all Grades): Decreased appetite, patients (Overall) | TRAEs (all Grades): Headache, patients (Overall) | TRAEs (all Grades): Nausea, patients (Overall) | TRAEs (all Grades): Pruritus, patients (Overall) | TRAEs (all Grades): Rash maculo-papular, patients (Overall)
(4.2%): TRAEs (all Grades): Aspartate aminotransferase increased, % of patients (Overall) | TRAEs (all Grades): Blood bilirubin increased, % of patients (Overall) | TRAEs (all Grades): Dehydration, % of patients (Overall) | TRAEs (all Grades): Diarrhoea, % of patients (Overall) | TRAEs (all Grades): Dyspepsia, % of patients (Overall) | TRAEs (all Grades): Lipase increased, % of patients (Overall) | TRAEs (all Grades): Myalgia, % of patients (Overall) | TRAEs (all Grades): Peripheral sensory neuropathy, % of patients (Overall) | TRAEs (all Grades): Phlebitis, % of patients (Overall) | TRAEs (all Grades): Pneumonitis, % of patients (Overall)
fatigue: Most common treatment-related adverse events (TRAEs) (>10%) (patients)
(8.4%): TRAEs (all Grades): Bell's palsy, % of patients (Overall)
(8.3%): TRAEs (all Grades): Decreased appetite, % of patients (Overall) | TRAEs (all Grades): Headache, % of patients (Overall) | TRAEs (all Grades): Nausea, % of patients (Overall) | TRAEs (all Grades): Pruritus, % of patients (Overall) | TRAEs (all Grades): Rash maculo-papular, % of patients (Overall)
14: # of pts discontinued treatment: Disease progression (Overall)
well tolerated: tolerability (patients, IV once weekly in a 21-day-cycle)
(12.5%): TRAEs (all Grades): Fatigue, % of patients (Overall)
45 mg: MTD of APG-1387 monotherapy (IV once weekly in a 21-day-cycle)
(7.7%): TRAEs (all Grades): Myalgia, % of patients (APG-1387 45 mg) | TRAEs (all Grades): Nausea, % of patients (APG-1387 45 mg) | TRAEs (all Grades): Peripheral sensory neuropathy, % of patients (APG-1387 45 mg)
0: TRAEs (all Grades): Headache, patients (APG-1387 45 mg) | TRAEs (all Grades): Lipase increased, patients (APG-1387 45 mg) | TRAEs (all Grades): Phlebitis, patients (APG-1387 45 mg) | TRAEs (all Grades): Pneumonitis, patients (APG-1387 45 mg) | TRAEs (all Grades): Pruritus, patients (APG-1387 45 mg) | TRAEs (all Grades): Rash maculo-papular, patients (APG-1387 45 mg) | TRAEs (all Grades): Tumor pain, patients (APG-1387 45 mg) | # of pts discontinued treatment: Lack of efficacy (APG-1387 60 mg) | TRAEs (all Grades): Aspartate aminotransferase increased, patients (APG-1387 60 mg) | TRAEs (all Grades): Decreased appetite, patients (APG-1387 60 mg) | TRAEs (all Grades): Dehydration, patients (APG-1387 60 mg) | TRAEs (all Grades): Diarrhoea, patients (APG-1387 60 mg) | TRAEs (all Grades): Dyspepsia, patients (APG-1387 60 mg) | TRAEs (all Grades): Eructation, patients (APG-1387 60 mg) | TRAEs (all Grades): Fatigue, patients (APG-1387 60 mg) | TRAEs (all Grades): Myalgia, patients (APG-1387 60 mg) | TRAEs (all Grades): Nausea, patients (APG-1387 60 mg) | TRAEs (all Grades): Peripheral sensory neuropathy, patients (APG-1387 60 mg) | TRAEs (all Grades): Phlebitis, patients (APG-1387 60 mg) | TRAEs (all Grades): Tumor pain, patients (APG-1387 60 mg) | TRAEs (all Grades): Eructation, patients (Overall) | TRAEs (all Grades): Tumor pain, patients (Overall)
(20.0%): TRAEs (all Grades): Bell's palsy, % of patients (APG-1387 60 mg) | TRAEs (all Grades): Blood bilirubin increased, % of patients (APG-1387 60 mg) | TRAEs (all Grades): Headache, % of patients (APG-1387 60 mg) | TRAEs (all Grades): Lipase increased, % of patients (APG-1387 60 mg) | TRAEs (all Grades): Pneumonitis, % of patients (APG-1387 60 mg) | TRAEs (all Grades): Pruritus, % of patients (APG-1387 60 mg) | TRAEs (all Grades): Rash maculo-papular, % of patients (APG-1387 60 mg)
3: # of pts discontinued treatment: Adverse Event (Overall) | TRAEs (all Grades): Fatigue, patients (Overall)
Two: Dose Limiting Toxicity (DLTs) observed (at 60 mg, lipase increase and facial nerve disorder)
1: TRAEs (all Grades): Myalgia, patients (APG-1387 45 mg) | TRAEs (all Grades): Nausea, patients (APG-1387 45 mg) | TRAEs (all Grades): Peripheral sensory neuropathy, patients (APG-1387 45 mg) | # of pts discontinued treatment: Clinical progression (APG-1387 60 mg) | # of pts discontinued treatment: Disease progression (APG-1387 60 mg) | TRAEs (all Grades): Bell's palsy, patients (APG-1387 60 mg) | TRAEs (all Grades): Blood bilirubin increased, patients (APG-1387 60 mg) | TRAEs (all Grades): Headache, patients (APG-1387 60 mg) | TRAEs (all Grades): Lipase increased, patients (APG-1387 60 mg) | TRAEs (all Grades): Pneumonitis, patients (APG-1387 60 mg) | TRAEs (all Grades): Pruritus, patients (APG-1387 60 mg) | TRAEs (all Grades): Rash maculo-papular, patients (APG-1387 60 mg) | TRAEs (all Grades): Aspartate aminotransferase increased, patients (Overall) | TRAEs (all Grades): Blood bilirubin increased, patients (Overall) | TRAEs (all Grades): Dehydration, patients (Overall) | TRAEs (all Grades): Diarrhoea, patients (Overall) | TRAEs (all Grades): Dyspepsia, patients (Overall) | TRAEs (all Grades): Lipase increased, patients (Overall) | TRAEs (all Grades): Myalgia, patients (Overall) | TRAEs (all Grades): Peripheral sensory neuropathy, patients (Overall) | TRAEs (all Grades): Phlebitis, patients (Overall) | TRAEs (all Grades): Pneumonitis, patients (Overall)
